Laboratory results taken from patent US8211922B2, “1-methylnicotinamide derivatives and formulations for treatment of lipoprotein abnormalities” (Cortria Corporation, priority 2005, dated 2012).

Columns and labels:
dyslipidemic patients = assay: Anti-atherogenic effect of MNA after a single administration, plasma lipids; format: in vivo, human; conditions: for HDL % / TG % / TG/HDL % / Total Cholesterol %: change vs time 0; for TG: person
Method: The anti-atherogenic effect of NINA after single administration was also investigated in dyslipidemic patients. The patient was treated with 100 mg MNA. The plasma levels of TC, TG, and HDL were measured at baseline and after 1 and 3 hours. The level of LDL was not measured due to high TG level. […] The increase of the HDL (24.8 vs. 29.0 mg/dl) was observed after the administration. The significant reduction of TG/HDL ratio (24.0 vs. 16.5) was observed.

[1] = system: patients on permanent therapy with simvastatin; assay: Safety of co-administration of MNA with statins; format: in vivo, human
Method: A group of 10 patients (4 females and 6 males, ages 38-79) on permanent therapy with simvastatin (10-20 mg/day) were selected for the study. In addition to simvastatin each patient received MNA in daily dose of 90 mg/day for six weeks. The clinical chemistry parameters were monitored during three doctor's visits: two weeks before, just before and after six weeks of MNA administration.

[2] = Binding to Sepharose immobilized heparin; conditions: as a cationic molecule
[3] = Toxicity and tolerability
[4] = system: patients on permanent therapy with simvastatin or atorvastatin; assay: Long term MNA use in patients on permanent therapy with statins, lipoprotein levels; format: in vivo, human
Method: A group of 8 patients (5 females and 3 males, ages 59-85) on permanent therapy with simvastatin or atorvastatin (10-20 mg/day) were selected for the study. MNA in a daily dose of 90-180 mg was co-administrated for a period of 3 to 42 months. The liporotein levels for each patient were monitored in every 1 to 3 months. […] The changes varied from patient to patient within a limit −5% to −42%. The appropriate changes in LDL were within −12% to +17% and in HDL within −6% to +37%.

apoE/LDLR−/− mice = assay: Mice model of atheroprotection, quantitation of atherosclerosis; format: in vivo; conditions: female apoE/LDLR−/− mice, 100 mg/kg MNA for 2 months, vs placebo; FIG. 2
Method: Female apoE/LDLR^−/− mice on C57BL/6J background were used for experiments. The experiments were conducted according to the Guidelines for Animal Care and Treatment of the European Communities and were approved by the Local Animal Ethics Committee. apoE/LDLR^−/− mice were fed with standard chow. MNA was given for 2 months (100 mg/kg, 4-6 months old apoE/LDLR^−/− mice) and effects of MNA compared to placebo-treated mice. In each group of mice (control and MNA) n=5.
Development of atherosclerosis was determined by cross-section (aortic roots), en-face (whole aorta) analysis and quantified semiautomatically, as described before (Jawien et al. Eur J Clin Invest; 2006; 36:141-6). Briefly, the heart and whole aorta were washed by phosphate buffered saline, then the heart and the whole aorta were removed. The heart and ascending aorta were embedded in OCT compound and snap-frozen. Ten micrometer-thick cryosections were cut and after fixation in 4% paraformaldehyde were stained with Meyer's hematoxylin and oil red-O and lesion area was measured semiautomatically in each slide using LSM Image Browser software.

various cell lines = assay: Cytoprotection of cell lines; format: cell-based
[5] = system: rats fed a hypertriglyceridemic diet; assay: Rat model of hypertriglyceridemia (high-fructose diet), plasma triglyceride; format: in vivo; conditions: Wistar rats, AIN93 diet with 60% fructose 8 weeks; 100 mg/kg MNA in drinking water for the last 4 weeks; FIG. 1
Method: Rats fed a high-fructose diet develop hypertriglyceridemia, insulin resistance and a mild degree of hypertension abnormalities that mimic metabolic syndrome in humans (Boehm and Claudi-Boehm, Scand J Clin Lab Invest Suppl. 2005; 240:3-13). […] One group was fed a control diet (basal AIN93) for 8 weeks, the second was fed an AIN93 diet supplemented with 60% fructose for 8 weeks, and the third was fed an AIN93 diet supplemented with 60% fructose that was additionally treated with 100 mg/kg of MNA for the last 4 weeks (after hypertriglicerydemia fully develops) and was given to drinking water. At the end of experiments rats were anesthetized, and blood was withdrawn and anticoagulated. Triglyceride level in plasma was measured by standard spectophotometric technique using commercially available kits.

PGI2 = PGI2 release
[6] = MNA 90 mg/day for six weeks co-administered with simvastatin (10-20 mg/day), 10 patients

Substance: 1-methylnicotinamide chloride [MNA]
- TG/HDL ratio (dyslipidemic patients; after the administration of 100 mg MNA (base-line 24.0)): 16.5
- HDL (dyslipidemic patients; after the administration of 100 mg MNA (base-line 24.8)): 29.0 mg/dL
- TG level (dyslipidemic patients; after the administration of 100 mg MNA (base-line 596)): 479 mg/dL
- HDL % (dyslipidemic patients; single 100 mg MNA, 1 h): 2.82%
- TG % (dyslipidemic patients; single 100 mg MNA, 1 h): −5.03%
- TG/HDL % (dyslipidemic patients; single 100 mg MNA, 1 h): −7.64%
- Total Cholesterol % (dyslipidemic patients; single 100 mg MNA, 1 h): 1.08%
- HDL % (dyslipidemic patients; single 100 mg MNA, 3 h): 16.94%
- TG % (dyslipidemic patients; single 100 mg MNA, 3 h): -19.63%
- TG/HDL % (dyslipidemic patients; single 100 mg MNA, 3 h): −31.27%
- Total Cholesterol % (dyslipidemic patients; single 100 mg MNA, 3 h): 4.84%
- TG (dyslipidemic patients; single 100 mg MNA, 1 h): 566 mg/dL
- TG (dyslipidemic patients; single 100 mg MNA, 3 h): 479 mg/dL
- HDL (dyslipidemic patients; single 100 mg MNA, 1 h): 25.5 mg/dL
- TG/HDL (dyslipidemic patients; single 100 mg MNA, 1 h): 22.20
- Total Cholesterol (dyslipidemic patients; single 100 mg MNA, 1 h): 188 mg/dL
- HDL (dyslipidemic patients; single 100 mg MNA, 3 h): 29.0 mg/dL
- TG/HDL (dyslipidemic patients; single 100 mg MNA, 3 h): 16.52
- Total Cholesterol (dyslipidemic patients; single 100 mg MNA, 3 h): 195 mg/dL
- Clinical chemistry parameters (liver enzymes AST and ALT, creatinine, urea, glucose and homocysteine) [1, 6]: not changed within the measurements accuracy
- Negative effects on patient examination [1, 6]: no negative effects were observed
- Adverse synergistic effects ([1]; MNA co-administration with statins): does not result in any adverse synergistic effects
- Binding to Sepharose immobilized heparin [2]: bound
- Tolerability [3]: very well tolerated
- Toxicity [3]: non-toxic
- HDL ([4]; co-administration with statin, patients with a low starting HDL level (<40 mg/dl)): particularly remarkable increase
- Triglyceride (TG) level ([4]; long term co-administration of MNA with simvastatin or atorvastatin, in general): reduction
- Negative side effects ([4]; long term co-administration of MNA with statins): Neither patients nor doctors involved with this study have declared any negative side effects
- Atherosclerosis progression (lesion area) (apoE/LDLR−/− mice): slows atherosclerosis progression
- Cytoprotection (various cell lines): cytoprotective
- Triglyceride level in plasma [5]: lowers triglyceride levels
- PGI2 release (PGI2): releases PGI2
